Where a name gives a salt, the structure may show the parent alone. Read-outs that look alike come from different tables or passages of the source.
Assays:
[1] = target: MCL-1 (Homo sapiens, UniProt Q07820); test: Protein-protein interaction assay MCL-1/Noxa BH3 peptide (MCL-1 assay), TR-FRET; type: binding; conditions: MBP-MCL-1 / Noxa BH3-derived peptide, median
Method in brief: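 Inhibition values were normalized between DMSO controls with all reagents and controls lacking MCL-1. The binding competition used 1 nM MBP-MCL-1 in pH 7 Tris buffer containing 50 mM KF and 100 mM NaCl, with a 10 min compound preincubation at 22 °C.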

[2] = tested on: SUDHL10; test: Induction of caspase-3/7 activity (Caspase-Glo 3/7), SUDHL10; type: cell-based; conditions: caspase-3/7 induction, SUDHL10 cells, 3 h treatment, median
Method in brief: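 Apoptosis induction measured as caspase-3/7 activity (Caspase-Glo 3/7) in DLBCL lines after 3 h treatment at 37 °C; EC50 derived relative to the reference compound's maximal induction, with C0 fixed at 1.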

[3] = tested on: SUDHL5; test: Induction of cytotoxicity (CellTiter-Glo, 5 h), SUDHL5
[4] = tested on: SUDHL10; test: Induction of cytotoxicity (CellTiter-Glo, 5 h), SUDHL10
Description: Therefore, cytotoxicity assays were run in parallel in SUDHL5 and SUDHL10 cells.
The different cell lines were plated in culture medium (RPMI 1640 [GIBCO #22400-089]supplemented with 10% Fetal Bovine Serum) at a density of 3.300 cells in 30 μl/well in a sterile, solid black, flat bottom, polystyrene, TC-treated 384-well microplate (Corning #3571) using Multidrop Combi Reagent Dispenser. As a control, medium without cells was also added to the plate. Cells were incubated in a humidified incubator at 37° C. overnight. On the next day, the cells were treated with compounds (stock solution, 10 mM in DMSO) using the HP D300 Digital Dispenser in a concentration range of 3.3×10e-5 M (33 μM) to 5×10e-9 M (5 nM) in a single-dot curve with at least 16 dilutions and a DMSO concentration of 0.33%. Rim wells were excluded. The cells were incubated for 5 h hours in a humidified incubator at 37° C. After this incubation, 30 μl of CellTiter-Glo@ Luminescent Cell Viability reagent (Promega, G7573) was added to each well using the Multidrop Combi Reagent Dispenser, followed by 15 min incubation on a shaker at room temperature. Finally, luminescence was read at 0.1 ms, with a gain of 3000 using the PHERAstar FS microplate reader (BMG Labtech).
The Bella DRC Master Sheet was used to calculate IC50s, with fixed CI=0 and C0=1.

[5] = Homo sapiens, SU-DHL-5, 5 h, read-out: Cytotox SUDHL5 [M] (median), SUDHL5 cells, cytotoxicity induction, CellTiter-Glo, 5 h incubation, median
[6] = Homo sapiens, SU-DHL10, 5 h, read-out: Cytotox SUDHL10 [M] (median), SUDHL10 cells, cytotoxicity induction, CellTiter-Glo, 5 h incubation, median
[7] = read-out: Cytotox SUDHL5 [M] (median), SUDHL5 cells, cytotoxicity induction, CellTiter-Glo, 5 h incubation, median
[8] = read-out: Cytotox SUDHL10 [M] (median), SUDHL10 cells, cytotoxicity induction, CellTiter-Glo, 5 h incubation, median

Sequence of MCL-1 (Q07820 whole entry): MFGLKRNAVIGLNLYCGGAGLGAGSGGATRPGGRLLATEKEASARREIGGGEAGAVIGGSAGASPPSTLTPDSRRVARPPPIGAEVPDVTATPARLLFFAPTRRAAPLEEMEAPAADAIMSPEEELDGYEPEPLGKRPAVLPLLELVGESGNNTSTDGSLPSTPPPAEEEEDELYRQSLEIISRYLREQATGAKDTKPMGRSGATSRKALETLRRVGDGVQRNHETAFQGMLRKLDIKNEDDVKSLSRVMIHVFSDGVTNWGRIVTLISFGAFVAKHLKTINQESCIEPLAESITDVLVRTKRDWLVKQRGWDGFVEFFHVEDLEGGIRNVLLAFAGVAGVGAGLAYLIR

Row | SMILES | IC50 [1] [nM] | EC50 ([2]; Homo sapiens, SU-DHL10, 3 h) [nM] | IC50 [3, 5] [M] | IC50 [4, 6] [M] | EC50 [2] [nM] | IC50 [3, 7] [M] | IC50 [4, 8] [M]
1 | CCc1c2c(nn1C)COCCCCn1c(C(=O)O)c(CCCOc3cccc4ccccc34)c3ccc(C)c-2c31 (racemic) [Example 153, (rac)-3-Ethyl-2,4-dimethyl-7-[3-(1-naphthyloxy)propyl]-2,10,11,12,13,15-hexahydropyrazolo[4′,3′:9,10][1,6]oxazacycloundecino[8,7,6-hi]indole-8-carboxylic Acid] | 4.8 | 5120 | 1.65e-06 | 5.1e-06 |  |  | 
2 | Cc1c2c(nn1C)COCCCCn1c(C(=O)O)c(CCCOc3cccc4ccccc34)c3cccc-2c31 (racemic) [Example 1-36, (rac)-2,3-dimethyl-7-[3-(naphthalen-1-yloxy)propyl]-2,10,11,12,13,15-hexahydropyrazolo[4′,3′:9,10][1,6]oxazacycloundecino[8,7,6-hi]indole-8-carboxylic Acid] | 3.28 | 7510 | 3.69e-06 | 1.4e-05 |  |  | 
3 | COCc1nn(C)c2c1-c1cccc3c(CCCOc4cccc5ccccc45)c(C(=O)O)n(c13)CCCN(C)C2 (single isomer, unassigned; enantiomer 2) [Example 1-104, 11-(methoxymethyl)-7,9-dimethyl-1-[3-(1-naphthyloxy)propyl]-4,5,6,7,8,9-hexahydropyrazolo[3′,4′:7,8][1,5]diazecino[9,10,1-hi]indole-2-carboxylic Acid (Enantiomer 2)] | 3.55 |  |  |  | 8640 | 7.21e-06 | 1.78e-05
4 | Cc1nn(C)c2c1-c1cccc3c(CCCOc4cccc5ccccc45)c(C(=O)O)n(c13)CCCCOCC2 (racemic) [Example 017, (rac)-1,3-dimethyl-7-[3-(1-naphthyloxy)propyl]-10,11,12,13,15,16-hexahydro-1H-pyrazolo[4′,3′:9,10][1,6]oxazacyclododecino[8,7,6-hi]indole-8-carboxylic Acid] | 8.96 | > 33000 | 1.36e-05 | > 3.3e-05 | 31900 |  | 
5 | CCn1nc2c(c1C1CC1)-c1cccc3c(CCCOc4cccc5ccccc45)c(C(=O)O)n(c13)CCCCOC2 (single isomer, unassigned; enantiomer 1) [Example 082, 3-cyclopropyl-2-ethyl-7-[3-(naphthalen-1-yloxy)propyl]-2,10,11,12,13,15-hexahydropyrazolo[4′,3′:9,10][1,6]oxazacycloundecino[8,7,6-hi]indole-8-carboxylic acid-N-ethylethanamine Salt (Enantiomer 1)] | 4.37 | 30500 |  | > 3.3e-05 |  | 8.19e-06 | 
6 | Cc1nn(C)c2c1-c1cccc3c(CCCOc4cccc5cc(Cl)ccc45)c(C(=O)O)n(c13)CCCCOC2 (single isomer, unassigned; enantiomer 1) [Example 041, 7-{3-[(6-chloronaphthalen-1-yl)oxy]propyl}-1,3-dimethyl-1,10,11,12,13,15-hexahydropyrazolo[4′,3′:9,10][1,6]oxazacycloundecino[8,7,6-hi]indole-8-carboxylic acid-N-ethylethanamine Salt (Enantiomer 1)] | 4.44 | 18200 |  |  |  | 1.02e-05 | 1.46e-05
7 | Cc1c2c(nn1CCN1CCOCC1)CN(C)CCCn1c(C(=O)O)c(CCCOc3cccc4ccccc34)c3cccc-2c31 (single isomer, unassigned; enantiomer 1) [Example 060, 7,11-dimethyl-10-[2-(morpholin-4-yl)ethyl]-1-[3-(naphthalen-1-yloxy)propyl]-4,5,6,7,8,10-hexahydropyrazolo[3′,4′:7,8][1,5]diazecino[9,10,1-hi]indole-2-carboxylic Acid (Enantiomer 1)] | 5.44 |  |  |  | 8540 | 4.3e-06 | 7.87e-06
8 | Cc1nn(C)c2c1-c1cccc3c(CCCOc4cccc5cc(F)ccc45)c(C(=O)O)n(c13)CCCCOC2 (single isomer, unassigned; enantiomer 1) [Example 019, 7-{3-[(6-fluoronaphthalen-1-yl)oxy]propyl}-1,3-dimethyl-1,10,11,12,13,15-hexahydropyrazolo[4′,3′:9,10][1,6]oxazacycloundecino[8,7,6-hi]indole-8-carboxylic Acid-N-ethylethanamine Salt (Enantiomer 1)] | 0.862 |  |  |  | 5160 | 1.68e-06 | 3.76e-06
9 | COCCn1nc2c(c1C)-c1cccc3c(CCCOc4cccc5ccccc45)c(C(=O)O)n(c13)CCCCOC2 (single isomer, unassigned; enantiomer 1) [Example 107, 2-(2-methoxyethyl)-3-methyl-7-[3-(naphthalen-1-yloxy)propyl]-2,10,11,12,13,15-hexahydropyrazolo[4′,3′:9,10][1,6]oxazacycloundecino[8,7,6-hi]indole-8-carboxylic acid-N-ethylethanamine Salt (Enantiomer 1)] | 1.71 |  |  |  | 4910 | 1.73e-06 | 4.65e-06
10 | CN1CCCn2c(C(=O)O)c(CCCOc3cccc4ccccc34)c3cccc(c32)-c2c(COc3ccc(N4CCN(S(=O)(=O)N(C)C)CC4)cc3)nn(C)c2C1 (single isomer, unassigned; enantiomer 1) [Example 1-15, (+)-11-({4-[4-(dimethylsulfamoyl)piperazin-1-yl]phenoxy}methyl)-7,9-dimethyl-1-[3-(naphthalen-1-yloxy)propyl]-4,5,6,7,8,9-hexahydropyrazolo[3′,4′:7,8][1,5]diazecino[9,10,1-hi]indole-2-carboxylic Acid (Enantiomer 1)] | 3.03 |  |  |  | 1820 | 1.38e-06 | 1.94e-06
11 | CCc1c2c(nn1C)CN(C)CCCn1c(C(=O)O)c(CCCOc3cccc4ccccc34)c3ccc(C)c-2c31 (racemic) [Example 144, (rac)-11-ethyl-7,10,12-trimethyl-1-[3-(1-naphthyloxy)propyl]-4,5,6,7,8,10-hexahydropyrazolo[3′,4′:7,8][1,5]diazecino[9,10,1-hi]indole-2-carboxylic Acid] | 3.34 | 3910 | 2.55e-06 | 5.02e-06 |  |  | 
12 | Cc1ccc2c(CCCOc3cccc4ccccc34)c(C(=O)O)n3c2c1-c1c(nn(C)c1C)CN(C)CCC3 (single isomer, unassigned; enantiomer 1) [Example 073, 7,10,11,12-tetramethyl-1-[3-(naphthalen-1-yloxy)propyl]-4,5,6,7,8,10-hexahydropyrazolo[3′,4′:7,8][1,5]diazecino[9,10,1-hi]indole-2-carboxylic Acid (Enantiomer 1)] | 2.06 |  |  |  | 2940 | 1.79e-06 | 3.67e-06
13 | CN1CCCn2c(C(=O)O)c(CCCOc3cccc4ccccc34)c3cccc(c32)-c2c(COc3ccc(N4CCN(S(C)(=O)=O)CC4)cc3)nn(C)c2C1 (single isomer, unassigned; enantiomer 1) [Example 1-46, (+)-7,9-dimethyl-11-({4-[4-(methylsulfonyl)piperazin-1-yl]phenoxy}methyl)-1-[3-(naphthalen-1-yloxy)propyl]-4,5,6,7,8,9-hexahydropyrazolo[3′,4′:7,8][1,5]diazecino[9,10,1-hi]indole-2-carboxylic Acid (Enantiomer 1)] | 1.43 |  |  |  | 1740 | 1.53e-06 | 2.29e-06
14 | CC(C)OCc1nn(C)c2c1-c1cccc3c(CCCOc4cccc5ccccc45)c(C(=O)O)n(c13)CCCCN(C)C2 (single isomer, unassigned) [Example 1-74, 1,14-dimethyl-7-[3-(naphthalen-1-yloxy)propyl]-3-[(propan-2-yloxy)methyl]-10,11,12,13,14,15-hexahydro-1H-pyrazolo[3′,4′:8,9][1,6]diazacycloundecino[10,11,1-hi]indole-8-carboxylic Acid] | 4.79 | 20300 |  |  |  | 9.82e-06 | 1.42e-05
15 | CCc1c2c(nn1C)COCCCCn1c(C(=O)O)c(CCCOc3cccc4ccccc34)c3cccc-2c31 (single isomer, unassigned; enantiomer 1) [Example 148, 3-Ethyl-2-methyl-7-[3-(1-naphthyloxy)propyl]-2,10,11,12,13,15-hexahydropyrazolo[4′,3′:9,10][1,6]oxazacycloundecino[8,7,6-hi]indole-8-carboxylic acid-N-ethylethanamine Salt (Enantiomer 1)] | 0.919 |  |  |  | 3480 | 9.08e-07 | 2.4e-06
16 | Cn1nc(COc2ccc(N3CCN(S(C)(=O)=O)CC3)cc2)c2c1COCCCCn1c(C(=O)O)c(CCCOc3cccc4ccccc34)c3cccc-2c31 (single isomer, unassigned; enantiomer 2) [Example 1-10, 1-methyl-3-({4-[4-(methylsulfonyl)piperazin-1-yl]phenoxy}methyl)-7-[3-(naphthalen-1-yloxy)propyl]-1,10,11,12,13,15-hexahydropyrazolo[4′,3′:9,10][1,6]oxazacycloundecino[8,7,6-hi]indole-8-carboxylic acid (enantiomer 2)] | 0.93 |  |  |  | 755 | 4.33e-07 | 4.74e-07

— patent US10981932B2, “Macrocyclic indole derivatives” (Bayer Aktiengesellschaft, priority 2016, dated 2021)
